Results from US9034922B2, “Composition for maintaining function of platelets” (THE UNIVERSITY OF TOKYO, priority 2010, dated 2015).

Key:
[1] = biological target: T1, Matrix metalloproteinase 2 (MMP-2) (Homo sapiens, UniProt P08253); assay: Enzyme inhibition experiment, MMP-2; assay type: biochemical; details: 3163 substrate, 37° C., 5 hours
T1 construct: purchased Calbiochem 444213
T1 sequence (P08253 110-660): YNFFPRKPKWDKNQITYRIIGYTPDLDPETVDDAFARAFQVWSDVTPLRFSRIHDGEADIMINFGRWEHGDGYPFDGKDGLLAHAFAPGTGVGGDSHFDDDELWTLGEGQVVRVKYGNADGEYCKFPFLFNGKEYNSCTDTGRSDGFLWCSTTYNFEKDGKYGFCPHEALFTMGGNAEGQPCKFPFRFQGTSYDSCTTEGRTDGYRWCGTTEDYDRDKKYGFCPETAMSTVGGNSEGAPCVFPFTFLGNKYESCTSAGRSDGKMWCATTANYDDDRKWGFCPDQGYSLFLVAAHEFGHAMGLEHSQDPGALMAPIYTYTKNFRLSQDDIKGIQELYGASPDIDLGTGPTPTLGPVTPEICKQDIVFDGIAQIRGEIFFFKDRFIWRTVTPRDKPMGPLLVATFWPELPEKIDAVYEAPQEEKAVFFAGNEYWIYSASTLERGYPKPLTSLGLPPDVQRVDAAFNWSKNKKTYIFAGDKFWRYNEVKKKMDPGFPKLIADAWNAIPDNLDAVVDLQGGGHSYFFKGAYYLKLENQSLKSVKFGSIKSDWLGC
Procedure: (§1) The enzyme reaction was carried out using the enzymes and substrates. Specifically, if necessary, the enzyme was activated in advance with APMA (final concentration 1 mmol/L, p-aminophenylmercuric acetate, manufactured by Sigma-Aldrich Co., A9563) according to information from the manufacturer. Then, in a 96-well plate for fluorescence measurement, 90 μL of an enzyme solution prepared with Assay Buffer A (50 mmol/L Tris-HCl buffer (pH 7.5) containing 200 mmol/L sodium chloride, 5 mmol/L calcium chloride, 10 μmol/L zinc sulfate, and 2 mg/mL bovine serum albumin) was mixed with 90 μL of the substrate adjusted to be 20 μmol/L with Assay Buffer B (50 mmol/L Tris-HCl buffer (pH 7.5) containing 200 mmol/L sodium chloride, 5 mmol/L calcium chloride, 10 μmol/L zinc sulfate, and 0.05% PLURONIC F-68), and incubated for reaction at 25° C. or 37° C. for several hours. Moreover, the fluorescence intensities before and after the reaction were measured using a fluorometer to determine the enzyme activity.

[2] = biological target: T2, TACE expressed on the macrophage-like cells (THP-1) (Homo sapiens, UniProt P78536); assay: Cellular TACE inhibition experiment (LPS-induced TNF-α production in PMA-differentiated THP-1 cells); assay type: cell-based; details: for IC50: THP-1 macrophage-like cells, LPS 1 μg/mL, 6 hours, read-out: IC50 TNFα production
T2 construct: host or cells: THP-1 cells differentiated with PMA into macrophage-like cells
T2 sequence (P78536 215-824): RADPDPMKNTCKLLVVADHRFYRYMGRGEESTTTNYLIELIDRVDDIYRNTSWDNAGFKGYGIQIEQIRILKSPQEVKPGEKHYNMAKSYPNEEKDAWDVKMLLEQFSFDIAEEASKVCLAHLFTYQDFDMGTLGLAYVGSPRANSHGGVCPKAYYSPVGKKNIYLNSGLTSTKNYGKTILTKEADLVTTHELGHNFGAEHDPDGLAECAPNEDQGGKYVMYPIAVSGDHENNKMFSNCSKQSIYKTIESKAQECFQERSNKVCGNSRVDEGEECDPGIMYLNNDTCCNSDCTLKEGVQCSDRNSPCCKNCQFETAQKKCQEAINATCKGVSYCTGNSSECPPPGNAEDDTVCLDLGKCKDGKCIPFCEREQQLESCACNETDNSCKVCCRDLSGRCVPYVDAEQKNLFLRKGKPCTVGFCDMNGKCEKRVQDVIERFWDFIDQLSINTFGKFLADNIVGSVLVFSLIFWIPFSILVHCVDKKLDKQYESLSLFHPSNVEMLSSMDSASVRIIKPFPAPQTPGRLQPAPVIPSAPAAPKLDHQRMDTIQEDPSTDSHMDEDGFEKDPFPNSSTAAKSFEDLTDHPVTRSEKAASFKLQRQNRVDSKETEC
Procedure: After the differentiation, the medium was discarded, and the cells were washed with THP-1 washing buffer (RPMI 1640, 20 mM HEPES-NaOH (pH 7.4)). After the washing of the cells, a THP-1 assay buffer (RPMI 1640, 20 mmol/L HEPES-NaOH (pH 7.4), 0.01 w/v % PF-68, 10 v/v % FBS) was added thereto at 100 μL/well. Then, a THP-1 assay buffer containing the test substance (I-1 or 1-4) was further added at 50 μL/well and mixed by tapping. After incubation in a CO2 incubator for 30 to 45 minutes, a THP-1 assay buffer containing LPS was added at 50 μL/well (the final concentration of LPS was 1 μg/mL). Further, the plate was tapped for mixing, followed by incubation in the CO2 incubator for 6 hours. After the incubation was finished, human TNF-α concentration in the culture supernatant was measured with a commercially available kit (Human TNF-α CytoSet (manufactured by BIOSOURCE) or Human TNF-α Ready-Set-Go! (manufactured by eBioscience, Inc.)).

[3] = tested on: ES cell-derived platelets (ADAM17-mediated GPIbα shedding); assay: Function-maintaining effect on ES cell-derived platelets in culture system (flow cytometry CD41/CD42b, platelet count)
Procedure: As human ES cells (hES cells), a KhES cell line (KhES-3) established by and provided from Institute for Frontier Medical Sciences, Kyoto University was used.
The human ES cells or the human iPS cells were seeded on the feeder cells such that the cell count was 5×10^4 to 1×10^5/10-cm dish. The cells were cultured in Iscove's Modified Dulbecco's Medium (IMDM, manufactured by Invitrogen Corp/GIBCO) supplemented with 15% FBS (product name: CELLect™ GOLD, manufactured by ICN Biomedicals Inc.), 2 mM L-glut amine (manufactured by Invitrogen Corp.), ITS supplement (10 μg/ml insulin, 5.5 mg/ml human transferrin, 5 ng/ml sodium selenite) (manufactured by Sigma-Aldrich Co.), 50 μg/ml ascorbic acid (Sigma-Aldrich Co.), 0.45 mM α-monothioglycerol (MTG, manufactured by Sigma-Aldrich Co.), and 20 ng/ml vascular endothelial growth factor (VEGF, manufactured by R&D Systems, Inc.). Further, this culturing was carried out at 37° C. in 5% CO2 and 21% O2 (atmospheric oxygen) using a CO2 incubator (product name: HERA CELL 150i, manufactured by Thermo Fisher Scientific K. K.). Then, the medium was replaced every 3 days, and the culturing was continued under the conditions until Day 15 when a large number of sac structures (sac-like structures) containing hematopoietic progenitor cells therein were observed.
Next, after detached from the dish, the sac structures were disrupted and suspended in a 3% FBS-containing phosphate buffer solution (PBS). Then, the suspension was passed through a 40-μm cell strainer (manufactured by BD). The solution thus passed through was centrifuged at 440×g for 10 minutes to collect hematopoietic progenitor cells, and the cells was counted. The hematopoietic progenitor cells were seeded on 10T1/2 cells newly prepared in a 6-well plate (6×10^5 cells/plate) exposed to 50-Gy radiation such that the number of the hematopoietic progenitor cells was 2 to 3×10^4/well. The hematopoietic progenitor cells were further cultured for 8 days in IMDM (manufactured by Invitrogen Corp/GIBCO) supplemented with 15% FBS (product name: CELLect™ GOLD, manufactured by ICN Biomedicals Inc.), 2 mM L-glutamine (manufactured by Invitrogen Corp.), ITS supplement (10 μg/ml insulin, 5.5 mg/ml transferrin, 5 ng/ml sodium selenite) (manufactured by Sigma-Aldrich Co.), 50 μg/ml ascorbic acid (manufactured by Sigma-Aldrich Co.), 0.45 mM MTG (manufactured by Sigma-Aldrich Co.), 100 ng/ml human thrombopoietin (human TPO, manufactured by PeproTech, Inc.), 50 ng/ml human stem cell factor (SCF, manufactured by PeproTech, Inc.), and 25 U/ml heparin. Thereby, megakaryocytes/platelets were induced.
Subsequently, the induced megakaryocytes/platelets were collected with an anticoagulant solution (Acid Citrate Dextrose, ACD), followed by centrifugation at 900 rpm for 10 minutes without a break. The supernatant obtained by the centrifugation was further centrifuged at 1500 rpm for 10 minutes without a break to remove the supernatant. Thereafter, the numbers of megakaryocytes and platelets in the precipitate thus obtained were analyzed by flow cytometry using antibodies for staining.
Note that, in the flow cytometry, FACS Aria manufactured by Becton, Dickinson and Company was used. As the antibodies used to stain the megakaryocytes and the platelets, used were a Phycoerythrin (PE)-modified anti-human CD42a (GPIX) antibody, a PE-modified anti-human CD42b (GPIbα) antibody, and an allophycocyanin (APC)-labelled anti-CD41a (integrin αIIbbeta3 complex, HIP8 clone) antibody (manufactured by BD Bioscience). Additionally, in order to accurately measure the absolute numbers of the megakaryocytes and the platelets, the cells were stained with these antibodies, and the analysis was conducted by flow cytometry using TruCount beads (manufactured by BD Bioscience), also.

[4] = biological target: T3, Matrix metalloproteinase 3 (MMP-3) (Homo sapiens, UniProt P08254); assay: Enzyme inhibition experiment, MMP-3; assay type: biochemical; details: 3168 substrate, 37° C., 4 hours
T3 construct: purchased Calbiochem 444217
T3 sequence (P08254 100-272 limits assumed): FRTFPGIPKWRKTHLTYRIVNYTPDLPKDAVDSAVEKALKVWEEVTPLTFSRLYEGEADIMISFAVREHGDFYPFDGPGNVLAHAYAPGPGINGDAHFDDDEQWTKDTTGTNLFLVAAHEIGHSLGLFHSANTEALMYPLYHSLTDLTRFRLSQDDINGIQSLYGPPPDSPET
Procedure: Matrix metalloproteinase 3 (MMP-3) (manufactured by Calbiochem, product number: 444217)
3168 substrate (MOCAc-Arg-Pro-Lys-Pro-Val-Glu-Nva-Trp-Arg-Lys(Dnp)-NH2, manufactured by Peptide Institute, Inc.): excitation wavelength at 320 nm, emission wavelength at 405 nm, and 3163 substrate (MOCAc-Pro-Leu-Gly-Leu-A2pr(Dnp)-Ala-Arg-NH2, manufactured by Peptide Institute, Inc.): excitation wavelength at 320 nm, emission wavelength at 405 nm.
as §1, with “activity. An inhibition rate was obtained based on the enzyme activities in the presence and absence of the test substances, and the 50% inhibitory concentration (IC50) was calculated.” for “activity.”

[5] = biological target: T4, Matrix metalloproteinase 8 (MMP-8) (Homo sapiens, UniProt P22894); assay: Enzyme inhibition experiment, MMP-8; assay type: biochemical; details: 3163 substrate, 37° C., 5 hours
T4 construct: purchased Calbiochem 444229
T4 sequence (P22894 101-467): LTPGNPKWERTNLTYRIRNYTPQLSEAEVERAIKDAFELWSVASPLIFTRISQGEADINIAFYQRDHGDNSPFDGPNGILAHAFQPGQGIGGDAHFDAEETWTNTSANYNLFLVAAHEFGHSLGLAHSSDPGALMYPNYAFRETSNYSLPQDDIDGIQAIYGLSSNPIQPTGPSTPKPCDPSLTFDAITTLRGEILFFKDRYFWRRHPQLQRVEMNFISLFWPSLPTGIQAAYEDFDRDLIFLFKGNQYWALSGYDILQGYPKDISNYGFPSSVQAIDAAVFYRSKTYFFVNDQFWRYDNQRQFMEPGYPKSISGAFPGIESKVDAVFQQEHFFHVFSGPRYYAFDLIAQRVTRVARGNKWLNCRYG
Procedure: as §1

[6] = tested on: human peripheral blood-derived platelets (ADAM17-mediated GPIbα shedding); assay: Function-maintaining effect on human peripheral blood-derived washed platelets with CCCP (flow cytometry CD41/CD42b); assay type: cell-based; details: Test Example 13; 100 μM CCCP, 37° C., 24 hours; S-45457 50 μM, S-45282 5 μM, p38 inhibitors 40 μM
Procedure: Specifically, according to <Protocol 2> illustrated in FIG. 6, first, ACD was added to human peripheral blood obtained by collecting blood at a ratio of 1:10, and centrifuged at 900 rpm for 10 minutes without a break. The supernatant obtained by the centrifugation was further centrifuged at 1500 rpm for 10 minutes without a break, and then the supernatant was removed. The precipitate thus obtained was suspended in a Tyrode-HEPES buffer (not containing calcium). The number of platelets in the suspension was counted, and the suspension (Washed Platelet) was adjusted to contain 5×10^7 to 1×10^8 of platelets/200 μL of the Tyrode-HEPES buffer (not containing calcium). […] After incubation at 37° C. for 24 hours, the numbers of CD41(+)CD42b(+) and CD41(+)CD42b(−) were counted by flow cytometry.
After incubation at 37° C. for 24 hours, a dot plot analysis on CD41(+) and CD42b(+) was conducted by flow cytometry.
After incubation at 37° C. for 24 hours and flow cytometry analysis, a percentage of CD41(+)CD42b(+) in the platelets was calculated.
After incubation at 37° C. for 24 hours, a total number of platelets and the number of CD42b(+) were counted by flow cytometry, and percentage of CD42b(+) in the platelets was calculated.
After incubation at 37° C. for 24 hours, by flow cytometry, a dot plot analysis on CD41(+) and CD42b(+) was conducted.

Row | Compound | IC50 [1] [µM] | inhibitory activity on TACE expressed on the macrophage-like cells (in words) [2] | IC50 [2] [µM] | inhibitory effect on GPIbα shedding compared with 50 μM GM6001 ([3]; Test Example 5, S-45282 at 5 μM) | inhibition of ADAM17-mediated GPIbα shedding (CD42b(+) percentage) ([3]; Test Example 5, added for 2 days or 8 days, GM6001 50 μM, S-45282 5 μM or 50 μM) | number of platelets obtained ([3]; Test Example 5, added for 2 days, 50 μM GM6001, 5 μM S-45282) | IC50 [4] [µM] | IC50 [5] [µM] | function-maintaining effect on human peripheral blood-derived platelets (dot plot CD41/CD42b) [6] | inhibition of ADAM17-mediated GPIbα shedding ([3]; Test Example 6, 8 days, S-45457 5 μM or 50 μM, GM6001 50 μM) | toxicity to cells (total number of platelets) ([3]; Test Example 7, ES cells and differentiated cells, 1.5 to 50 μM, 8 days) | concentration dependency of inhibition of GPIbα shedding ([3]; Test Example 7, ES cells, S-45457 1.5 to 50 μM, 8 days)
1 | CC#CCOc1ccc(S(=O)(=O)CC(c2ccc(CN(CC)CC)cc2)N(O)C=O)cc1 (stereo not drawn) [Compound I-1, N-[2-(4-But-2-ynyloxybenzenesulfonyl)-1-(4-diethylaminomethylphenyl)ethyl]-N-hydroxyformamide] | 0.15 | inhibitory activity was confirmed | 1.2 | inhibitory effect equivalent to 50 μM GM6001 | inhibit ADAM17-mediated GPIbα shedding | approximately the same | 8.3 | 0.9 | strong function-maintaining effect on human peripheral blood-derived platelets but not as strong as S-45457 | – | – | –
2 | CC#CCOc1ccc(S(=O)(=O)CC(c2ccc(CNS(C)(=O)=O)cc2)N(O)C=O)cc1 (stereo not drawn) [Compound I-4, N-{4-[2-(4-But-2-ynyloxybenzenesulfonyl)-1-(formylhydroxyamino)ethyl]benzyl}methanesulfonamide] | 0.29 | inhibitory activity was confirmed | 0.625 | – | – | – | 6.5 | 0.95 | suppresses ADAM17-mediated GPIbα (CD42b) shedding | inhibits ADAM17-mediated GPIbα shedding | low toxicity | inhibit ADAM17-mediated GPIbα shedding in a manner dependent on the added concentration
